In this test the target is T1, acetylcholine-binding protein (AcAChBP) (Aplysia californica, UniProt Q8WSF8).
T1 construct: recombinant AcAChBP with a C-terminal Tobacco etch virus cleavage site and His6 tag; homopentamer
T1 sequence (Q8WSF8 20-236): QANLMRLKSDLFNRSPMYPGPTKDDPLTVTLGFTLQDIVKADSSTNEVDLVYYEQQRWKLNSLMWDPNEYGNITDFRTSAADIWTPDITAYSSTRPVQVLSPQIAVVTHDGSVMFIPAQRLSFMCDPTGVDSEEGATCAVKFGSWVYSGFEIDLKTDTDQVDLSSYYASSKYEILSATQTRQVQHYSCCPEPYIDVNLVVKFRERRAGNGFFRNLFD
The test can be described thus: ITC and […] Å crystal structure.

Molecules are shown by their SMILES. pKd: −log10 of the molar value.

One may read the pKd as the negative decadic logarithm of the Kd, by convention in mol/L. Lower therefore signals a high Kd.

Consider `O=c1c(CCCO)ccc2n1C[C@@H]1CNC[C@H]2C1` [compound 4, (1R,5S)-9-(3-hydroxypropyl)-1,2,3,4,5,6-hexahydro-1,5-methano-8H-pyrido[1,2a][1,5]diazocin-8-one], for which the pKd is 4.27.
